Laboratory results from US4174402A, “Method for the prophylaxis of SRS-A-induced symptoms” (priority 1978, dated 1979).
“Also recorded” adds a separate entry of the source. Read-outs that look alike come from different tables or passages of the source.

Assays:
[1] = test system: SRS-A; assay: Test Procedure 2: inhibition of SRS-A-induced bronchoconstriction in anesthetized guinea pigs (Konzett-Rossler); format: in vivo, guinea pig; details: for % Inhibition (duration of anti-SRS-A effect) / Ratio of Peak Response to SRS-A in Paired Med./Co. Guinea Pigs ± S.E.: 10 mg/kg p.o.
From the text: SRS-A was harvested as described in Test Procedure 1 described hereinabove. A slightly modified Konzett-Rossler preparation [Arch. […] Guinea pigs weighing 350 to 450 g were anesthetized ip with 1.5 g/kg urethane. The jugular vein and trachea were cannulated and the guinea pigs were artificially respired at a rate of 40 strokes/minute. […] A side arm of the inflationary air cannula was connected to a pressure transducer and resistance to pulmonary inflation continuously recorded. […] Studies with SRS-A commenced after each guinea pig had attained maximum bronchoconstrictor response to histamine. […] The effects of the test compounds were studied by measuring SRS-A-induced bronchoconstriction side-by-side in two guinea pigs, one medicated and one control. Subsequent medicated/control pairs were alternated on two respiratory pumps. In this manner, the gradual decomposition of SRS-A and differences between the two pump/recorder systems, if any, were controlled. The dose (volume) of each sample of SRS-A was adjusted in each pair to keep the peaks of increases in bronchial resistance in control guinea pigs within 13 to 40 mmHg. Bronchoconstriction following injection of SRS-A was measured two ways; as the peak increase in resistance to inflation and, in view of the occasional irregular bronchoconstriction response curves following injection of SRS-A, as the sum of increases in bronchoconstriction over 10 minutes (pressure/time units). Pressure/time units were calculated by measuring the area under the curve of inflationary resistance where ordinates were set at 10 mm of pen excursion/10 mm pressure Hg and the abscissas were set at 15 mm of paper travel/minute. […] SRS-A-induced bronchoconstriction (increase in resistance) was calculated as the area under the curve and over the normal base line of resistance to inflation. […] The effects of the test compounds upon SRS-A-induced bronchoconstriction were expressed as ratios of the peaks and as ratios of the pressure/time units between the paired medicated and control guinea pigs. The consistency of paired responses to SRS-A in nonmedicated guinea pigs was determined in the same manner, by alternating the ratios of the results of guinea pigs on pumps one and two. […] SRS-A was injected 5 minutes after these latter injections. Compound b was prepared as a solution in 2% N-methylglucamine and used within 3 hours. […] Control guinea pigs received injections of the respective solvent vehicles. In order to compare the activities of compound b following iv and po routes of administration, compound b was also administered orally. […] Control guinea pigs received 2% N-methylglucamine. Fifteen minutes later, the guinea pigs were anesthetized, cannulated, and prepared for injections of SRS-A as described. The procedure was timed so that SRS-A was injected 1 hour after the oral administration of compound b. In a separate experiment, using the same methodology, the duration anti-SRS-A activity of compound b was determined after oral administration. Compound b was finely ground in a tissue homogenizer and prepared as a suspension in 0.5% gum tragacanth. A dose of 10 mg/kg was administered and anti-SRS-A effect studied at 1, 4 and 7 hr postmedication. The ratios of peak increases in intratracheal pressure between paired medicated and control guinea pigs was used to calculate percent inhibition.

[2] = test system: SRS-A; assay: Test Procedure 1: antagonism of SRS-A-induced bronchoconstriction in unanesthetized guinea pigs; format: in vivo, guinea pig
Method: The test compounds were administered orally to four guinea pigs/group 1 hour before the SRS-A challenge. The test compounds were prepared as suspensions in 1% gum tragacanth. Bronchoconstriction was graded 1+ to 3+ according to severity (1+ denoted restlessness and slight thoracic dyspnea, 2+ denoted moderate thoracic dyspnea and 3+ denoted convulsive dyspnea, regardless of whether the guinea pig died of asphyxiation or recovered).

[3] = test system: bradykinin
Method: Antagonism of bradykinin-induced bronchoconstriction in guinea pigs was determined by measuring increases in resistance to artificial pulmonary inflation (Konzett-Rossler preparation). […] Due to large variations in bronchoconstricting responses among individual guinea pigs, each guinea pig serves as its own control and was challenged with bradykinin twice. The second response to bradykinin was expressed as percent of the first response to bradykinin. […] All guinea pigs having a first bradykinin response of less than 12 mm Hg were rejected as poor responders. […] In order to augment the bronchoconstrictor response, each guinea pig received 100 mcg propranolol/kg, iv, 5 minutes before the first injection of bradykinin (30 mcg/kg, iv). […] Five minutes after the injection of a test compound the guinea pigs received the second injection of bradykinin and the peak of the response determined. The effects of both test compounds were expressed as % inhibition of bradykinin-induced increase in bronchial resistance to forced inflation, as compared to the levels of bronchial resistance following iv administration of their respective solvent controls.

[4] = test system: serotonin; assay: Test Procedure 6: serotonin-induced bronchoconstriction in anesthetized guinea pigs; format: in vivo, guinea pig
Method: Guinea pigs, weighing 275-340 g, were anesthetized and prepared for measurements of resistance to pulmonary inflation using a slightly modified Konzett-Rossler method (see Test Procedure 2). All guinea pigs received 0.1 mg/kg of propranolol iv and 5 minutes later, 50 mcg/kg of serotonin (creatinine complex) iv. Compound b or cyproheptadine were administered iv just before the injection of propranolol at 50 or 5 mg/kg, respectively. Compound b was prepared as a 5% solution in 5% N-methylglucamine and cyproheptadine as a 0.25% aqueous solution.

[5] = suspension, 1 hr before test, P 0.01
[6] = suspension, 4 hr before test, P 0.01
[7] = p.o. 3.3 mg/kg, solution, 1 hour
[8] = p.o. 10 mg/kg, solution, 1 hour

COc1ccc2c(c1)c1c(n2C(=O)c2ccccc2)CCC(C(=O)O)C1 (centres unmarked) [Compound b, 9-benzoyl-6-methoxy-1,2,3,4-tetrahydrocarbazole-3-carboxylic acid]
% Inhibition (duration of anti-SRS-A effect) [1, 5]: 81% | Ratio of Peak Response to SRS-A in Paired Med./Co. Guinea Pigs ± S.E. [1, 5]: 0.19 ± 0.05 | % Inhibition (duration of anti-SRS-A effect) [1, 6]: 68% | Ratio of Peak Response to SRS-A in Paired Med./Co. Guinea Pigs ± S.E. [1, 6]: 0.32 ± 0.08 | % Inhibition (duration of anti-SRS-A effect) ([1]; suspension, 7 hr before test): 0% | Ratio of Peak Response to SRS-A in Paired Med./Co. Guinea Pigs ± S.E. ([1]; suspension, 7 hr before test): 1.00 ± 0.15 | minimal effective dose ([1]; Cavia porcellus, intravenous, read-out: minimal active dose): 1 mg/kg | effect against SRS-A-induced bronchoconstriction (activity profile) ([1]; guinea pigs): effectiveness | % Inhibition (sum of increase in resistance over 10 min) ([1]; i.v. 0.3 mg/kg): 0% | Sum of Increase in Resist. to Infl. over 10 min, Avg Ratio Med/Co. Pairs ± S.E. ([1]; i.v. 0.3 mg/kg): 1.18 ± .33 | % Inhibition (peak increase in resistance) ([1]; i.v. 0.33 mg/kg): 0% | Peak Increase in Resistance to Inflation, Avg Ratio of Med/Co. Pairs ± S.E. ([1]; i.v. 0.33 mg/kg): 1.10 ± .19 | % Inhibition (peak increase in resistance) ([1]; i.v. 1.0 mg/kg): 54% | % Inhibition (sum of increase in resistance over 10 min) ([1]; i.v. 1.0 mg/kg): 45% | Peak Increase in Resistance to Inflation, Avg Ratio of Med/Co. Pairs ± S.E. ([1]; i.v. 1.0 mg/kg): 0.44 ± .07 | Sum of Increase in Resist. to Infl. over 10 min, Avg Ratio Med/Co. Pairs ± S.E. ([1]; i.v. 1.0 mg/kg): 0.55 ± .09 | % Inhibition (peak increase in resistance) ([1]; i.v. 3.3 mg/kg): 89% | % Inhibition (sum of increase in resistance over 10 min) ([1]; i.v. 3.3 mg/kg): 83% | Peak Increase in Resistance to Inflation, Avg Ratio of Med/Co. Pairs ± S.E. ([1]; i.v. 3.3 mg/kg): 0.11 ± .04 | Sum of Increase in Resist. to Infl. over 10 min, Avg Ratio Med/Co. Pairs ± S.E. ([1]; i.v. 3.3 mg/kg): 0.17 ± .05 | % Inhibition (peak increase in resistance) ([1]; i.v. 10 mg/kg): 95% | % Inhibition (sum of increase in resistance over 10 min) ([1]; i.v. 10 mg/kg): 86% | Peak Increase in Resistance to Inflation, Avg Ratio of Med/Co. Pairs ± S.E. ([1]; i.v. 10 mg/kg): 0.05 ± .03 | Sum of Increase in Resist. to Infl. over 10 min, Avg Ratio Med/Co. Pairs ± S.E. ([1]; i.v. 10 mg/kg): 0.14 ± .04 | inhibition of SRS-A-induced increases in resistance to inflation ([1]; intravenous): inhibited SRS-A-induced increases in resistance to inflation in a dose-related manner | potency relative to phenylbutazone, times more potent (95% confidence limits) ([1]; intravenous, calculated by peaks of increases in resistance): 3.8 (95% confidence limits of 1.8 to 7.8) times | absorption from the GI tract ([1]; oral solution in 2% N-methylglucamine, suggested by activity ratio): readily absorbed from the GI tract | inhibition of SRS-A-induced bronchoconstriction ([1]; oral solutions): dose-related inhibition | % Inhibition (peak increase in resistance) [1, 7]: 36% | % Inhibition (sum of increase in resistance over 10 min) [1, 7]: 47% | Peak Increase in Resistance to Inflation, Avg Ratio of Med/Co. Pairs ± S.E. [1, 7]: 0.64 ± .13 | Sum of Increase in Resist. to Infl. over 10 min, Avg Ratio Med/Co. Pairs ± S.E. [1, 7]: 0.53 ± .13 | % Inhibition (peak increase in resistance) [1, 8]: 87% | % Inhibition (sum of increase in resistance over 10 min) [1, 8]: 92% | Sum of Increase in Resist. to Infl. over 10 min, Avg Ratio Med/Co. Pairs ± S.E. [1, 8]: 0.08 ± .03 | duration of inhibition of SRS-A-induced bronchoconstriction ([1]; single oral dose 10 mg/kg, suspension): 4 h | iv/po activity ratio (po AED50/iv AED50) ([1]; solution in 2% N-methylglucamine): 2.6 | Incidence of Severe Bronchospasms, % ([2]; 0.4 mg/kg p.o.): 75% | Incidence of Severe Bronchospasms, No. Bronchosp./No. Tested ([2]; 0.4 mg/kg p.o.): 15/20 | Incidence of Severe Bronchospasms, % ([2]; 1.6 mg/kg p.o.): 42% | Incidence of Severe Bronchospasms, No. Bronchosp./No. Tested ([2]; 1.6 mg/kg p.o.): 8/19 | inhibition of severe SRS-A induced bronchospasm ([2]; 6.2 mg/kg oral): completely inhibited | Incidence of Severe Bronchospasms, % ([2]; 6.2 mg/kg p.o.): 0% | Incidence of Severe Bronchospasms, No. Bronchosp./No. Tested ([2]; 6.2 mg/kg p.o.): 0/19 | Incidence of Severe Bronchospasms, % ([2]; 25 mg/kg p.o.): 4% | Incidence of Severe Bronchospasms, No. Bronchosp./No. Tested ([2]; 25 mg/kg p.o.): 1/23 | Incidence of Severe Bronchospasms, % ([2]; 100 mg/kg p.o.): 0% | Incidence of Severe Bronchospasms, No. Bronchosp./No. Tested ([2]; 100 mg/kg p.o.): 0/20 | Incidence of Severe Bronchospasms, % ([2]; 400 mg/kg p.o.): 0% | Incidence of Severe Bronchospasms, No. Bronchosp./No. Tested ([2]; 400 mg/kg p.o.): 0/10 | ED50 ([2]; Cavia porcellus, po, 1 hour before SRS-A, read-out: AED50): 2.3 mg/kg | Potency (Phenylbutazone = 1) (95% confidence limits) ([2]; p.o., 1 hour before SRS-A): 4.0 (2.1-8.2) | effect against bradykinin-induced bronchoconstriction (activity profile) ([3]; guinea pigs): effectiveness | inhibition of bradykinin-induced increases in bronchial resistance ([3]; iv): inhibited bradykinin-induced increases in bronchial resistance to inflation in a dose-related manner | % Inhibition ([3]; iv 0.33 mg/kg): 12% | Average Increase In Bronchial Resistance (2nd Response in % of 1st Response ± S.E.) ([3]; iv 0.33 mg/kg): 76 ± 13% | % Inhibition ([3]; iv 1.0 mg/kg): 48% | Average Increase In Bronchial Resistance (2nd Response in % of 1st Response ± S.E.) ([3]; iv 1.0 mg/kg): 45 ± 7% | % Inhibition ([3]; iv 3.3 mg/kg): 81% | Average Increase In Bronchial Resistance (2nd Response in % of 1st Response ± S.E.) ([3]; iv 3.3 mg/kg): 16 ± 3% | % Inhibition ([3]; iv 10.0 mg/kg): 84% | Average Increase In Bronchial Resistance (2nd Response in % of 1st Response ± S.E.) ([3]; iv 10.0 mg/kg): 14 ± 5% | % Inhibition ([3]; iv 33.0 mg/kg): 93% | Average Increase In Bronchial Resistance (2nd Response in % of 1st Response ± S.E.) ([3]; iv 33.0 mg/kg): 6 ± 4% | inhibition of bradykinin-induced bronchoconstriction ([3]; iv 3.3, 10 and 33 mg/kg): nearly complete inhibition | effect against serotonin-induced bronchoconstriction ([4]; guinea pigs): no inhibitory effect; also recorded: ineffectiveness | Increase in Resistance (mm Hg) ([4]; iv 50 mg/kg, P insign.): 45 ± 8 mm Hg | Inhibition % ([4]; iv 50 mg/kg, P insign.): 4%
